Measurements as given in PMC5490255, “Minute Impurities Contribute Significantly to Olfactory Receptor Ligand Studies: Tales from Testing the Vibration Theory” (eNeuro, 2017).

What was measured:
Or42b (dOr42b) [1] = biological target: T1, Or42b (dOr42b) (Drosophila melanogaster, UniProt Q9V9I4); assay: GC-coupled calcium imaging (GCaMP6m) of Or42b neurons; conditions: inhibitory (calcium decrease) at own elution time, direct receptor action not separately proven
T1 construct: native receptor in Or42b olfactory sensory neurons of living female flies (Or42b-Gal4 > UAS-GCaMP6m); calcium imaging of antenna or glomerulus DM1; endogenous Orco; with Odorant receptor coreceptor
T1 sequence (Q9V9I4 1-399): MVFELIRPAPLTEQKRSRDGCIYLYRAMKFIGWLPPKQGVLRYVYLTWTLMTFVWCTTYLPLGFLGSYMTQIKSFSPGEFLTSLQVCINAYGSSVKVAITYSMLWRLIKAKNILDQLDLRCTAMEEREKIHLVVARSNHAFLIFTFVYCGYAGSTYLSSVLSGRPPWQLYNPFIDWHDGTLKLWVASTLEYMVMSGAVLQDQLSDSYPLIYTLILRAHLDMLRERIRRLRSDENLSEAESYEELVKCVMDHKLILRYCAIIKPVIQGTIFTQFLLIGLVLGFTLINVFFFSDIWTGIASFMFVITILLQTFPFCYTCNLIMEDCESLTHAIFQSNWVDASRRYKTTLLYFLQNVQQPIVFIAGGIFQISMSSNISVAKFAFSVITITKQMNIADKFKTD
T1 sequence (Q9VNB5 1-486 partner): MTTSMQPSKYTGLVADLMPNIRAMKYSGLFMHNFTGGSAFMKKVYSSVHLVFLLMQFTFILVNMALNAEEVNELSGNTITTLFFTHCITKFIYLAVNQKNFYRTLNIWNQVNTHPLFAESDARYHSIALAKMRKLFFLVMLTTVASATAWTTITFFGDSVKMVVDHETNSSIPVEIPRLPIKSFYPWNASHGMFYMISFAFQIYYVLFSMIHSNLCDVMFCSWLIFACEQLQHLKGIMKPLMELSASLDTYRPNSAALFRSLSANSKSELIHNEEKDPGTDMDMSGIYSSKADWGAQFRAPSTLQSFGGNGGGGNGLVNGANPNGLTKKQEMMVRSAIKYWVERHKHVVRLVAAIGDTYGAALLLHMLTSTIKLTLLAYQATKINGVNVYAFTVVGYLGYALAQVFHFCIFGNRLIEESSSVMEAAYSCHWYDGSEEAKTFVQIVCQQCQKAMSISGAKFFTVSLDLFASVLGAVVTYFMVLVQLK

Or42b (dOr42b) [2] = biological target: T1, Or42b (dOr42b); assay: GC-coupled antennal calcium imaging (GCaMP6m) of Or42b neurons, single dose; conditions: agonist, 10^-2 dilution
[3] = GC-purified eluate of headspace

| SMILES | GC-coupled antennal calcium imaging (GCaMP6m) of Or42b neurons, single dose (Or42b (dOr42b) [2]; [3]) | also measured |
| --- | --- | --- |
| O=Cc1ccccc1 [benzaldehyde-d5] |  | GC-coupled calcium imaging (GCaMP6m) of Or42b neurons (Or42b (dOr42b) [1]; 10^-2 and 10^-1 dilution, deuterated compound, excitation without GC due to ethyl acetate impurity): response to either benzaldehyde-h or benzaldehyde-d5 was inhibitory at the elution time of benzaldehyde |
| O=Cc1ccccc1 [benzaldehyde-h] |  | GC-coupled calcium imaging (GCaMP6m) of Or42b neurons (Or42b (dOr42b) [1]; 10^-2 dilution): response to either benzaldehyde-h or benzaldehyde-d5 was inhibitory at the elution time of benzaldehyde |
| CCOC(=O)C[C@H](C)O [ethyl (S)-(+)-3-hydroxybutyrate] | ethyl propionate, propyl acetate, and ethyl (S)-(+)-3-hydroxybutyrate all elicited responses that decayed slowly |  |
| CCCC(=O)OCC [ethyl butyrate] |  | GC-coupled antennal calcium imaging (GCaMP6m) of Or42b neurons, single dose (Or42b (dOr42b) [2]; GC-purified, own elution peak (sample also held other active impurities)): unknown, and one corresponding to ethyl butyrate itself |
| CCOC(=O)CC [ethyl propionate] | ethyl propionate, propyl acetate, and ethyl (S)-(+)-3-hydroxybutyrate all elicited responses that decayed slowly |  |
| CCCOC(C)=O [propyl acetate] | ethyl propionate, propyl acetate, and ethyl (S)-(+)-3-hydroxybutyrate all elicited responses that decayed slowly |  |
